US8143243B2, “Compounds for the treatment of hepatitis C” (Bristol-Myers Squibb Company, priority 2007, dated 2012)
pEC50, pIC50: −log10 of the molar value. Like-named read-outs stand apart in the source and are kept apart here.

How the values were obtained:
HCV replicon cells = test: HCV replicon FRET / luciferase assay; assay type: cell-based; conditions: Hepatitis C virus
Summary of the method: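 Replicon cells + titrated cpds, 37 °C CO2. Alamar blue for cytotoxicity, PBS rinse, then lysis reagent w/ 20 μM FRET peptide (EDANS/DABCYL), 150 mM NaCl; kinetic read ex340/em490, 20 cycles. Alt: Dual-Glo luciferase. EC50 = 50% drop in FRET/luciferase signal after background subtraction.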

HCV NS5B = molecular target: T1, HCV NS5B (Hepatitis C virus genotype 1b, UniProt Q9WMX2); test: HCV NS5B RdRp enzyme assay (standard / modified); assay type: biochemical
T1 construct: The protein was expressed with an 18 amino acid C-terminal truncation to enhance the solubility; made in house; host or cells: E. coli BL21 (DE3)
Summary of the method: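 NS5B genotype 1b, 18-aa C-terminal truncation, E. coli-expressed; polyA template with biotinylated oligo-dT12 primer, 3H-UTP 0.29 μM, 30° C, SPA read-out in 20 mM Hepes pH 7.5, 2% DMSO. Standard: 28 nM enzyme, 6 nM template, 180 nM primer, 60 min; modified: 14 nM enzyme, 0.2 nM template, 20 nM bead-precaptured primer, 4 h. IC50 from seven concentrations.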

[1] = HCV replicon cells, FRET or luciferase readout, read-out: EC50
[2] = HCV RdRp genotype 1b enzyme, read-out: IC50

T1 sequence (Q9WMX2 2420-2992): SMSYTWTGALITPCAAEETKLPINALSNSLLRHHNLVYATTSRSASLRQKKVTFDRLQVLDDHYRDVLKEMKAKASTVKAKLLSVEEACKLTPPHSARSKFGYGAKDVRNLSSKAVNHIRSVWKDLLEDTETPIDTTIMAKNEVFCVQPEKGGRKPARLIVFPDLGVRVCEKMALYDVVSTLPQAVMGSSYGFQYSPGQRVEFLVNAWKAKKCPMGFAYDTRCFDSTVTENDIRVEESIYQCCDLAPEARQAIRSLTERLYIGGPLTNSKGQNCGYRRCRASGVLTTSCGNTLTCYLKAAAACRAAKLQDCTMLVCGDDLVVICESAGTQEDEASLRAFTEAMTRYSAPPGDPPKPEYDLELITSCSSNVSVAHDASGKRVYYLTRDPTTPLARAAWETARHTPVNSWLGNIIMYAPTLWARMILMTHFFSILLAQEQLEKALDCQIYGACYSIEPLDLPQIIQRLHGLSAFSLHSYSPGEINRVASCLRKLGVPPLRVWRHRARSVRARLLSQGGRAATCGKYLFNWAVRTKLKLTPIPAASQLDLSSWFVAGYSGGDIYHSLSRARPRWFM

Compound	pEC50 (HCV replicon cells; [1])	pIC50 (HCV NS5B; [2])	pEC50 (HCV replicon cells)	pIC50 (HCV NS5B)
COc1ccc2c(c1)C=C(c1c(C(=O)N3C[C@@H](C)N(C)[C@@H](C)C3)c(C)nn1C)Cn1c-2c(C2CCCCC2)c2ccc(C(=O)NS(=O)(=O)C(C)C)cc21	6.30 to 9.00	6.30 to 9.00		
CCn1ncc(C(=O)N2CCOCC2)c1C1=Cc2cc(OC)ccc2-c2c(C3CCCCC3)c3ccc(C(=O)N4CCOCC4)cc3n2C1	6.30 to 9.00	< 6.30		
CCN1C[C@@H]2C[C@H]1CN2C(=O)c1c(C)nn(C(C)C)c1C1=Cc2cc(OC)ccc2-c2c(C3CCCCC3)c3ccc(C(=O)NS(=O)(=O)C(C)C)cc3n2C1	6.30 to 9.00	6.30 to 9.00		
COc1ccc2c(c1)C=C(c1c(C(=O)N3C4CCC3CN(C)C4)cnn1C(C)C)Cn1c-2c(C2CCCCC2)c2ccc(C(=O)NS(=O)(=O)C(C)C)cc21			6.30 to 9.00	6.30 to 9.00
COc1ccc2c(c1)C=C(c1c(C(=O)N3CCOCC3)cnn1CC(F)(F)F)Cn1c-2c(C2CCCCC2)c2ccc(C(=O)NS(=O)(=O)C(C)C)cc21	6.30 to 9.00	6.30 to 9.00		
COc1ccc2c(c1)C=C(c1c(C(=O)N3CCOCC3)cnn1C)Cn1c-2c(C2CCCCC2)c2ccc(C(=O)NS(=O)(=O)CC(C)C)cc21	6.30 to 9.00	6.30 to 9.00		
COc1ccc2c(c1)C=C(c1c(C(=O)N3C[C@@H](C)N(C)[C@@H](C)C3)cnn1C)Cn1c-2c(C2CCCCC2)c2ccc(C(=O)NS(=O)(=O)C(C)C)cc21	6.30 to 9.00	6.30 to 9.00		
CCC(C)S(=O)(=O)NC(=O)c1ccc2c(C3CCCCC3)c3n(c2c1)CC(c1c(C(=O)N2C4CCCC2COC4)cnn1C)=Cc1cc(OC)ccc1-3 (stereo not drawn)			6.30 to 9.00	6.30 to 9.00
COc1ccc2c(c1)C=C(c1c(C(=O)N3CCN(C)CC3)c(C(F)(F)F)nn1C)Cn1c-2c(C2CCCCC2)c2ccc(C(=O)NS(=O)(=O)C(C)C)cc21	6.30 to 9.00	6.30 to 9.00		
COc1ccc2c(c1)C=C(c1c(C(=O)N3CC(C)N(C)C(C)C3)cnn1C(C)C)Cn1c-2c(C2CCCCC2)c2ccc(C(=O)NS(=O)(=O)C(C)C)cc21 (stereo not drawn)	6.30 to 9.00	6.30 to 9.00		
COc1ccc2c(c1)C=C(c1c(C(=O)N3C[C@@H](C)O[C@@H](C)C3)cnn1C)Cn1c-2c(C2CCCCC2)c2ccc(C(=O)NS(=O)(=O)N3CCOCC3)cc21	6.30 to 9.00	6.30 to 9.00		
COc1ccc2c(c1)C=C(c1ocnc1C(=O)N1CCOCC1)Cn1c-2c(C2CCCCC2)c2ccc(C(=O)O)cc21	6.30 to 9.00	6.30 to 9.00		
COc1ccc2c(c1)C=C(c1c(C(=O)N3CCC(N(C)C)C3)cnn1C)Cn1c-2c(C2CCCCC2)c2ccc(C(=O)NS(=O)(=O)C(C)C)cc21 (stereo not drawn)	6.30 to 9.00	6.30 to 9.00		
COc1ccc2c(c1)C=C(c1c(C(=O)N3CC4CCC(C3)N4C)cnn1C(C)C)Cn1c-2c(C2CCCCC2)c2ccc(C(=O)NS(=O)(=O)C(C)C)cc21			6.30 to 9.00	6.30 to 9.00
COc1ccc2c(c1)C=C(c1c(C(=O)N3C4COCC3COC4)cnn1C)Cn1c-2c(C2CCCCC2)c2ccc(C(=O)NS(=O)(=O)CC(C)C)cc21			6.30 to 9.00	6.30 to 9.00
COc1ccc2c(c1)C=C(c1c(C(=O)N3CCN(C(C)C)CC3)cnn1C)Cn1c-2c(C2CCCCC2)c2ccc(C(=O)NS(=O)(=O)C(C)C)cc21	6.30 to 9.00	6.30 to 9.00		
COC[C@@H]1CN(C(=O)c2cnn(C)c2C2=Cc3cc(OC)ccc3-c3c(C4CCCCC4)c4ccc(C(=O)NS(=O)(=O)N5CCOCC5)cc4n3C2)CCO1	6.30 to 9.00	6.30 to 9.00		
COc1ccc2c(c1)C=C(c1c(C(=O)N3CC4CCC(C3)O4)cnn1C(C)C)Cn1c-2c(C2CCCCC2)c2ccc(C(=O)NS(=O)(=O)C(C)C)cc21	6.30 to 9.00	6.30 to 9.00		
COc1ccc2c(c1)C=C(c1c(C(=O)N3CCOCC3)cnn1C)Cn1c-2c(C2CCCCC2)c2ccc(C(=O)NS(=O)(=O)C3CCC3)cc21	6.30 to 9.00	6.30 to 9.00		
COc1ccc2c(c1)C=C(c1c(C(=O)N3C4COCC3COC4)cnn1C(C)C)Cn1c-2c(C2CCCCC2)c2ccc(C(=O)NS(=O)(=O)CC(C)C)cc21			6.30 to 9.00	6.30 to 9.00
COc1ccc2c(c1)C=C(c1c(C(=O)N3CCOCC3)cnn1C(C)C)Cn1c-2c(C2CCCCC2)c2ccc(C(=O)NS(=O)(=O)N(C)C)cc21	6.30 to 9.00	6.30 to 9.00		
COc1ccc2c(c1)C=C(c1c(C(=O)N3[C@@H]4CC[C@H]3C[C@@](C)(O)C4)cnn1C)Cn1c-2c(C2CCCCC2)c2ccc(C(=O)NS(=O)(=O)N3CCOCC3)cc21			6.30 to 9.00	6.30 to 9.00
COc1ccc2c(c1)C=C(c1c(C(=O)N3C4COCC3COC4)cnn1C)Cn1c-2c(C2CCCCC2)c2ccc(C(=O)NS(=O)(=O)C3CCCC3)cc21			6.30 to 9.00	6.30 to 9.00
CCN1C[C@@H]2C[C@H]1CN2C(=O)c1c(C)nn(CC)c1C1=Cc2cc(OC)ccc2-c2c(C3CCCCC3)c3ccc(C(=O)NS(=O)(=O)C(C)C)cc3n2C1	6.30 to 9.00	6.30 to 9.00		

Compound	pEC50 (HCV replicon cells; [1])	pIC50 (HCV NS5B; [2])	pEC50 (HCV replicon cells)	pIC50 (HCV NS5B)
COc1ccc2c(c1)C=C(c1c(C(=O)N3C[C@H]4CC[C@@H](C3)N4C)cnn1C(C)C)Cn1c-2c(C2CCCCC2)c2ccc(C(=O)NS(=O)(=O)CC(C)C)cc21			6.30 to 9.00	6.30 to 9.00
COc1ccc2c(c1)C=C(c1c(C(=O)N3CCN(C)CC3)cnn1C)Cn1c-2c(C2CCCCC2)c2ccc(C(=O)NS(=O)(=O)C(C)C)cc21	6.30 to 9.00	6.30 to 9.00		
COc1ccc2c(c1)C=C(c1c(C(=O)N3CCN(C)CC3)c(C)nn1C(C)C)Cn1c-2c(C2CCCCC2)c2ccc(C(=O)NS(=O)(=O)C(C)C)cc21	6.30 to 9.00	6.30 to 9.00		
COc1ccc2c(c1)C=C(c1occc1C(=O)N1CCOCC1)Cn1c-2c(C2CCCCC2)c2ccc(C(=O)NS(=O)(=O)C(C)C)cc21	6.30 to 9.00	6.30 to 9.00		
COc1ccc2c(c1)C=C(c1c(C(=O)N3C[C@@H]4C[C@H]3CO4)c(C)nn1C(C)C)Cn1c-2c(C2CCCCC2)c2ccc(C(=O)NS(=O)(=O)C(C)C)cc21	6.30 to 9.00	6.30 to 9.00		
CCn1nc(C)c(C(=O)OC)c1C1=Cc2cc(OC)ccc2-c2c(C3CCCCC3)c3ccc(C(=O)O)cc3n2C1	< 6.30	< 6.30		
CCn1nc(C)c(C(=O)N2CC3CCC(C2)O3)c1C1=Cc2cc(OC)ccc2-c2c(C3CCCCC3)c3ccc(C(=O)NS(=O)(=O)C(C)C)cc3n2C1	6.30 to 9.00	6.30 to 9.00		
COc1ccc2c(c1)C=C(c1c(C(=O)N3C4CCC3CN(C)C4)ccn1C(C)C)Cn1c-2c(C2CCCCC2)c2ccc(C(=O)NS(=O)(=O)C(C)C)cc21			6.30 to 9.00	6.30 to 9.00
COc1ccc2c(c1)C=C(c1c(C(=O)N3CC4CCC(C3)O4)c(C)nn1C)Cn1c-2c(C2CCCCC2)c2ccc(C(=O)NS(=O)(=O)C(C)C)cc21	6.30 to 9.00	6.30 to 9.00		
COc1ccc2c(c1)C=C(c1c(C(=O)N(C)C)cnn1C)Cn1c-2c(C2CCCCC2)c2ccc(C(=O)NS(=O)(=O)C(C)C)cc21	6.30 to 9.00	6.30 to 9.00		
COc1ccc2c(c1)C=C(c1c(C(=O)N3CCOCC3)cnn1C(C)C)Cn1c-2c(C2CCCCC2)c2ccc(C(=O)NS(=O)(=O)CC(C)C)cc21	6.30 to 9.00	6.30 to 9.00		
CCC(C)S(=O)(=O)NC(=O)c1ccc2c(C3CCCCC3)c3n(c2c1)CC(c1c(C(=O)N2CC(C)N(C)C(C)C2)cnn1C)=Cc1cc(OC)ccc1-3 (stereo not drawn)	6.30 to 9.00	6.30 to 9.00		
COc1ccc2c(c1)C=C(c1c(C(=O)N3[C@@H]4CC[C@H]3C[C@@](C)(O)C4)cnn1C(C)C)Cn1c-2c(C2CCCCC2)c2ccc(C(=O)NS(=O)(=O)C(C)C)cc21			6.30 to 9.00	6.30 to 9.00
COc1ccc2c(c1)C=C(c1c(C(=O)N3CCCC4(CCNC4=O)C3)cnn1C)Cn1c-2c(C2CCCCC2)c2ccc(C(=O)NS(=O)(=O)N3CCOCC3)cc21 (stereo not drawn)	6.30 to 9.00	6.30 to 9.00		
COc1ccc2c(c1)C=C(c1c(C(=O)N3[C@@H]4CC[C@H]3C[C@@](C)(O)C4)cnn1C)Cn1c-2c(C2CCCCC2)c2ccc(C(=O)NS(=O)(=O)C(C)C)cc21			6.30 to 9.00	6.30 to 9.00
COc1ccc2c(c1)C=C(c1ocnc1C(=O)N1CCOCC1)Cn1c-2c(C2CCCCC2)c2ccc(C(=O)NS(=O)(=O)C(C)C)cc21	6.30 to 9.00	6.30 to 9.00		
COc1ccc2c(c1)C=C(c1c(C(=O)N3C[C@H]4CC[C@@H](C3)N4C)cnn1C)Cn1c-2c(C2CCCCC2)c2ccc(C(=O)NS(=O)(=O)N3CCOCC3)cc21			6.30 to 9.00	6.30 to 9.00
COc1ccc2c(c1)C=C(c1c(C(=O)N3CCN4CCCC4C3)cnn1C)Cn1c-2c(C2CCCCC2)c2ccc(C(=O)NS(=O)(=O)C3CCC3)cc21 (stereo not drawn)	6.30 to 9.00	6.30 to 9.00		
COc1ccc2c(c1)C=C(c1c(C(=O)N3CCOCC3)c(C)nn1C)Cn1c-2c(C2CCCCC2)c2ccc(C(=O)NS(=O)(=O)C(C)C)cc21	6.30 to 9.00	6.30 to 9.00		
COc1ccc2c(c1)C=C(c1c(C(=O)N3CCOCC3)c(C)nn1C)Cn1c-2c(C2CCCCC2)c2ccc(C(=O)NS(=O)(=O)CC(C)C)cc21	6.30 to 9.00	6.30 to 9.00		
COc1ccc2c(c1)C=C(c1c(C(=O)N3C4CCC3CN(C)C4)cnn1C)Cn1c-2c(C2CCCCC2)c2ccc(C(=O)NS(=O)(=O)N(C)C)cc21			6.30 to 9.00	6.30 to 9.00
COc1ccc2c(c1)C=C(c1ccsc1C(=O)N1CCOCC1)Cn1c-2c(C2CCCCC2)c2ccc(C(=O)NS(=O)(=O)N(C)C)cc21	6.30 to 9.00	6.30 to 9.00		
CCOC(=O)N1CCN(C(=O)c2cnn(C)c2C2=Cc3cc(OC)ccc3-c3c(C4CCCCC4)c4ccc(C(=O)NS(=O)(=O)N5CCOCC5)cc4n3C2)CC1	6.30 to 9.00	6.30 to 9.00		
COc1ccc2c(c1)C=C(c1c(C(=O)N3CCOCC3)c(C)nn1C(C)C)Cn1c-2c(C2CCCCC2)c2ccc(C(=O)NS(=O)(=O)C(C)C)cc21	6.30 to 9.00	6.30 to 9.00		
